# Values of other authors, collected in patent publication US20100099776A1, “OILY SUSPENSION OF ATOVAQUONE” (RANBAXY LABORATORIES LIMITED, priority 2008, published 2010).
# Details: single oral dose
smiles,measurement,setting,value
"O=C1C(O)=C([C@H]2CC[C@H](c3ccc(Cl)cc3)CC2)C(=O)c2ccccc21 [Atovaquone, 244-(4-chlorophenyl)cyclohexyl′-3-hydroxy-1,4-naphthoquinone]",dose above which absorption is dose-limited,,above 750 mg
same,increase of absorption by the presence of fatty food,with fatty food,about three-fold
